Experiments:
breast cancer cell lines = assay: Alamar Blue cytotoxicity, averaged across cell lines or cell line not stated; format: cell-based, human; conditions: averaged across cell lines
Procedure: (§1) Human breast carcinoma cell line lines; SKBR-3, BT20, MB-MDA-468, MB-MDA-453, MB-MDA-231, and MCF-7 and human cancer cell lines Calu-6, Hela, HCT-116, HT-29, and A-431, obtained from ATCC (Manassas, Va.), were cultured in Dulbecco's Modified Eagle's Medium (DMEM-Sigma D-564R) supplemented with 10% Fetal Calf Serum (heat-inactivated) and antibiotics (Antibiotic Antimycotic Solution 100×, Sigma A9909). Breast cancer cell lines were chosen based on their varying amount of Epidermal Growth Factor Receptors (EGFR). Cells were routinely propagated and cultured at 37° C. in a 100% relative humidified atmosphere consisting of 5% C02 and 95% air. Cells were trypsinized with 0.05% Trypsin-0.2% EDTA (w/v) solution. All experiments were repeated at least three times.
Cells were seeded onto a standard 96-well microtiter plate at a density of 2×10^4 cells/well in 100-μl tissue culture medium. […] Each well was evaluated at seven 10-fold dilutions starting from a high of 1000 ppm. […] Following a 48-h incubation period, extracted cells were evaluated using Alamar Blue, a fluorometric/colorimetric assay that measures cell proliferation by relying on the cells metabolic activity. […] Data were analyzed immediately by visualizing color densities and/or with a standard spectrophotometer at 540 nm.

cancer cell lines = assay: Sulforhodamine B (SRB) assay, cell line not stated / average of all cell lines; format: cell-based, human; conditions: highest concentration; positive control averaged on all cell lines
Procedure: as §1
In addition to Alamar blue, Sulforhodamine B Assay (SRB) was used to determine inhibition by bound protein. Individual cell lines were seeded at varying cell densities as determined by growth rate. […] The absorbance of stained protein was read with an automated 96-well microtiter ELISA plate reader (SAFIRE) at 540 nm. Using absorbance measurement [time zero. (Tz)—control growth, and growth at each drug concentration level (Ti)], the percentage growth is calculated at each of the drug concentrations. Percent growth inhibition is calculated as: [(Ti−Tz)/Tz]×100 for concentration for which Ti<Tz.

[1] = tested on: Human breast cancer cell line MB-MDA-231; assay: Annexin V FITC / PI apoptosis detection by flow cytometry, 24 h; format: cell-based
Procedure: Human breast cancer cell line MB-MDA-231 were cultured in Dulbecco's Modified Eagle's medium (DMEM-Sigma, D-5648), supplemented with 10% (heat-inactivated) Fetal Bovine Serum (Atlanta Biologicals, Inc.) and Antibiotic Solution, 100× (Sigma A-9909). Cells were gown at 37° C., at 5-7% CO2, and 95% humidity and were obtained from the American Type Culture Collection (ATCC). Cells were trypsinized with 0.05% Trypsin-0.2% EDTA (w/v) solution (Invitrogen Corporation, Carlsbad, Calif.).
The induction of apoptosis in MB-MDA-231 was analyzed using a well-validated Annexin V FITC apoptosis detection kit (Calbiochem), Darzynkiewicz, 1998. The phosphatidylserine (PS)-specific dye Annexin-V is used to detect apoptotic-specific changes to the organization of phospholipids leading to exposure of PS on the cell surface that precedes nuclear breakdown, DNA fragmentation, and the appearance of most apoptosis-associated molecules. For these studies cells were seeded at 25×10^4 cells/1.5 ml in a 24 well microtiter plate. Cells were allowed to adhere to plates for 24 h, and then exposed to lignans of the present invention at 5-fold dilutions of 30 μl, 6 μl, and 1.2 μl per well for 24 h. Test compounds were mixed in solution using DMSO as vehicle (10 mg extract/1 ml DMSO). Camptothecin was used as a positive control. Following the incubation period 700 μl of suspended cells were transferred to 15 ml conical tubes. Cells that remained adhered to the 24-well plates were gently washed with PBS (137 mM NaCl, 2.7 mM KCL, 4.3 mM Na2HPO4-7H2O, 1.4 mM KH2PO4, adjusted to pH 7.4), trypsinized with 1 ml of solution (0.05% Trypsin—0.2% EDTA [w/v]), and resuspended with the suspended cells/media collected in the 15 ml conical tubes from the previous step. 10 μl of media-binding reagent and 1.25 μl Annexin V-FITC was added to the 15 ml conical tubes containing both the 700 μl of suspended cells and the resuspended cells and incubated at room temperature for 15 min, at 18-24° C., in the dark. Tubes were centrifuged for 5 minutes at 1000×g at room temperature. Media was removed and cells were gently resuspended in 0.5 ml cold 1×binding buffer (dilution; 5× Binding Buffer concentrate 1:5 with dH2O) and placed on ice. 10 μl of propidium iodide was added to each tube. Cells were placed on ice away from light and analyzed immediately by flow cytometry. The dual fluorescence emissions of the respective dyes were detected in cell preparations on a BD-Biosciences FACS Aria high-speed flow cytometer/cell sorter utilizing a quartz cuvette for interrogation. To quantify the Annexin V (FL1 at 518 nm) and propidium iodide (620 nm) signals, apoptosis-induced cells (CPT) stained with FITC only and apoptosis-induced cells (CPT) labeled with only propidium iodide were utilized. Necessary adjustments were made to minimize overlap between these two measurements. Typically, 10,000-20,000 cells were scored for each sample and classified as either viable, early apoptotic, or late apoptotic or necrotic. All experiments were repeated at least three times, each in duplicate.
The principal of the Annexin V/FITC assay is that, Annexin V, an anticoagulant protein, preferentially binds negatively charged phospholipids. Early in the apoptotic process, phospholipid asymmetry is disrupted leading to the exposure of phosphatidylserine (PS) on the outer leaflet of the cytoplasmic membrane. Annexin V binds to the negatively charged calcium-dependent PS. Conjugating FITC to Annexin V with simultaneous propidium iodide (PI) staining allows bivariate analysis of intact cells. Live, healthy cells are double negative, FITC (−)/PI (−), and are seen in the lower left quadrant [A3] of FACS cytograms. Cells that are FITC (+)/PI (−) [A4] are early apoptotic. Cell populations that are advanced apoptotic or necrotic are FITC (+)/PI (+) are located in quadrant [A2]. […]

cell line MD-MBA-231 = assay: Cell cycle analysis by DNA content (hypotonic PI staining, flow cytometry); format: cell-based, human; conditions: 1.2, 6.0, 30.0 ppm; 24 h
Procedure: Twenty-four hours after exposure to compounds, 25×10^4 cells in 1.5 ml cells were simply re-suspended following either the Annexin V/FITC assay or the trypsin procedures. Cells were centrifuged at 1000-x g at room temperature and washed in 0.5 ml of hypotonic staining solution. Cells were kept a minimum of 30 min. at 4° C. in the dark. Samples were usually analyzed by flow cytometry on the same day or at 24 hrs. Resulting DNA distributions were analyzed for the proportion of cells in apoptosis and in G0/G1, S, and G2/M phases of the cell cycle. Singlet events were gated and 10,000-20,000 events were acquired within the gated region. All experiments were repeated at least three times, each in duplicate.
The cell cycle comprises steps that regulate the correct temporal sequence of events that control the growth, reproduction and differentiation of cells. The cell cycle consists of 4 phases: G0/G1, S (DNA synthesis), G2, and M (mitosis). In addition, checkpoints located in the cell cycle transition ensure that cell growth and division occur in response to appropriate signals and environment. When proliferating, if cells are subjected to DNA damage the cell cycle temporarily pauses either at G1, S or G2 phase. Arrest at these checkpoints prevents DNA replication and mitosis in the presence of unrepaired DNA damage and presumably allows time for DNA repair to occur. The proportion of cells that arrest in G1, S or G2 after damage depends on cell type, growth conditions, type of damage and the checkpoints operative in the cells. Shifts in the redistribution of phases of the cell cycle in response to various stimuli can be readily assessed by flow cytometry. DNA content analysis with the use of PI is one of the most common assays. The use of intercalating dyes to measure DNA content are the most common and are usually sufficient to determine relative shifts in the phases of the cell cycle. The hypotonic solution lyses the plasma membrane and prevents many of the aggregate problems associated with fixed cells. Propidium Iodide(PI) passes through permeabilized cell membranes and intercalates with cellular DNA. Therefore, the intensity of the PI signal is directly proportional to DNA content. DNA content experiments determine the percent induction of apoptosis and relative distribution of the cell cycle phases.
The percent of apoptotic cells (cells with fractional DNA content; sub G1 cells) were established by estimating the percentage of events showing up in sub G0. The Sub-G1 method relies on the fact that after DNA fragmentation, there are small fragments of DNA that may be eluted. However in order to be seen in the Sub G1 area, a cell must have lost enough DNA to appear there; so if cells enter apoptosis from the S or G2/M phase of the cell cycle or if there is an aneuploid population undergoing apoptosis, they may not appear in the Sub G1 peak. The number of events in sub G1 (number of nuclear fragments) provides no information on the # of cells undergoing apoptosis.

SMILES | concentration of cell death / greatest inhibition, positive controls (breast cancer cell lines) | inhibited cell growth (cancer cell lines) | early stage apoptosis, FITC (+)/PI (−) staining, significance ([1]; 1.2, 6.0, 30.0 ppm, 24 h) | early apoptosis activity increased over the spirocyclic lignans ([1]; all doses) | % events in sub G0 (apoptotic events) (cell line MD-MBA-231) | effect on cell population in G2/M (cell line MD-MBA-231) | effect on cell populations in S-phase, significance (cell line MD-MBA-231) | singlet count (cell line MD-MBA-231)
O=c1[nH]cc(F)c(=O)[nH]1 [5-fluorouracil, 5-Fluorouracil] | cell death at the same lower limits as cell lines BT20 and MB-MDA-453 | approximately 60% |  |  |  |  |  | 
CC[C@@]1(O)C(=O)OCc2c1cc1n(c2=O)Cc2cc3ccccc3nc2-1 [Camptothecin, reference compound] | 7.81 ppm |  | significantly increased | at least 5% | increased and significantly induced apoptotic activity at 30.0 ppm | remained at levels with untreated cells at all doses | significant at 6.0 and 30.0 ppm | reached minimal levels at 30 ppm
